Reference: patent publication US6989377B2, “Treating vitamin D responsive diseases” (priority 1999, dated 2006)
Marks after values point to notes of the source that are not given here. One block for each compound: values may come before it.

Assays:
Assay type in all cases: in vivo, mouse
[1] = system: DS-induced colitis in C3H/HeJ male mice; assay: Calcitriol prevention of DS-induced colitis
Procedure: Fecal hemoglobin was analyzed in the mice to determine bleeding from a breached intestinal barrier. […] Co., Needham Heights, Mass.), the supernatants were decanted into fresh tubes and stored frozen at -20° C. Hemoglobin in the supernatants was analyzed by a method adapted from Saitoh et al., Digestion, 56:67-75, 1995, and Liem et al., Anal. Biochem., 98:388-393, 1979, with rat hemoglobin as standard (Sigma-Aldrich). The supernatants were diluted 1:25 in TBS. […] The reaction was stopped with 100 μL of 2 M phosphoric acid, and the absorbance at 450 nm was measured with an MRX Revelation Microplate Reader (DYNEX Technologies). […] The mice were euthanized with an i.p. injection of pentobarbital. […] The fixed tissue was embedded in paraffin, sectioned at 6 μm, stained with hematoxylin and eosin, and examined by light microscopy. Scoring was conducted by a veterinary pathologist in blinded fashion. […] Clin. Invest., 98:1010-1020, 1996. The scores were summed to provide a total colitis score for each mouse. […] In particular, age-matched C3H/HeJ male mice were fed a synthetic diet (see Example 6) with or without calcitriol or prednisolone for one week. […] The mice were weighed every 3-4 days thereafter. […] Serum and colon tissue were collected on day 28. Most assays were performed as described in Example 6, and the terminal serum calcium assay was performed as described below. […] The serum was decanted and stored frozen at -20° C. The samples, standards, and buffer blanks (2 μL each) were aliquoted into duplicate wells of a 96-well plate. Calcium reagent working solution (0.25 mL), prepared according to the manufacturer's directions (Sigma Diagnostics, St. Louis, Mo.), was added to each well, and the absorbance at 570 nm was measured.

[2] = system: DSS-induced colitis in 129X1/SvJ male mice; assay: Treatment at the first signs of DSS-induced colitis in 129X1/SvJ mice; details: 50 ng/d from day 4 of 1% DSS
Text: The 129×1/SvJ strain is genetically similar to the 129/Ola strain and to the 129/SvPas strain, which is less susceptible to DSS-induced colitis than C3H/HeJ.

[3] = system: DS-induced colitis in C3H/HeJ male mice; assay: Calcitriol prevention of DS-induced colitis; details: 50 ng/day in diet from day −7; 1% DS days 0 to 5; terminated day 27
male C3H/HeJ mice = assay: DS-induced colitis model in mice (weight, mortality, fecal hemoglobin, colon histopathology); details: for Colon Histopathology (sum): total colitis score 0 to 16
Text: This Example describes the generation of a mouse model for dextran sulfate (DS) induced colitis. This DS-induced colitis model was adapted from Okayasu et al. (1990) for use with a synthetic diet. In this Example, male C3H/HeJ mice were used, as these mice are highly susceptible to DS-induced colitis. Initially, mice were given 3.5% DS w/v in acidified water for 5 days, followed by acidified water without DS, and continuously fed a synthetic diet (synthetic diet described in Smith and Hayes, PNAS, USA, 84:5878-5882, 1987). […] These mice shunned the water containing DS, and met their hydration needs by consuming the synthetic diet (which is approximately 60% water by weight). A second group of mice were given 3.5% DS w/v in acidified water for 5 days, followed by acidified water without DS, and continuously fed laboratory chow (Purina mouse chow #5008) as described in Mahler et al., Gastrointest, Liver Physiol., 37:G544-G551 (1996). These mice, consuming an average of 0.57 g DS/mouse, lost weight (controls 26.1±0.7 g; DS group 22.8±0.3 g), and had hemoglobin (Hg) in the stool (controls 0±0 mg Hg/g stool; DS group 11.4 mg Hg/g stool).
To adapt the DS-induced model for use with the synthetic diet (see Smith and Hayes, 1987), a third group of mice were given graded amounts of DS in acidified water and a synthetic diet for 5 days, followed by acidified water and the synthetic diet without DS. These mice were weighed twice weekly and subjected to various other assays, including: fecal hemoglobin analysis, and histopathologic analysis. The results are presented below in Tables 2 and 3.
Fecal hemoglobin was analyzed in the mice to determine bleeding from a breached intestinal barrier. Fresh stool samples were collected from individual mice, dried overnight, weighed, and suspended in 0.5 mL of TRIS-buffered saline (TBS; 25 mM TRIS, 0.15 M NaCl, pH 7.6). The stool samples were centrifuged (10,000×g for 10 min) at room temperature in a Micromax centrifuge (International Equip. Co., Needham Heights, Mass.), the supernatants were decanted into fresh tubes and stored frozen at −20° C. Hemoglobin in the supernatants was analyzed by a method adapted from Saitoh et al., Digestion, 56:67-75, 1995, and Liem et al., Anal. Biochem., 98:388-393, 1979, with rat hemoglobin as standard (Sigma-Aldrich). The supernatants were diluted 1:25 in TBS. The assay was done in round-bottom, polystyrene, 96 well microtiterplates (#3555, DYNEX Technologies, Chantily, Va.). The samples, standards, and buffer blanks (20 μL each) were incubated in duplicate for 10 min with 100 μL of a substrate solution made with 9 volumes 3,3′5,5′-tetramethylbenzidine dihydrochloride peroxide solution (Turbo TMB-ELISA, Pierce Chemical Co., Rockford, Ill.) and 1 volume of hydrogen peroxide solution (Stable Peroxide Substrate Buffer, Pierce Chemical Co.). The reaction was stopped with 100 μL of 2 M phosphoric acid, and the absorbance at 450 nm was measured with an MRX Revelation Microplate Reader (DYNEX Technologies). The fecal hemoglobin assay working range was 1 to 100 μg/mL sample.
The mice were euthanized with an i.p. injection of pentobarbital. The cecal and rectal GI tract segments were collected, cut longitudinally, flushed with 10% neutral-buffered formalin, arranged in a spiral pattern in a cassette, and fixed in formalin. The fixed tissue was embedded in paraffin, sectioned at 6 μm, stained with hematoxylin and eosin, and examined by light microscopy. Scoring was conducted by a veterinary pathologist in blinded fashion. Each colon segment (proximal, medial, and distal colon, and rectum) was given a score from 0 to 4, based on the criteria described by Berg et al., J. Clin. Invest., 98:1010-1020, 1996. The scores were summed to provide a total colitis score for each mouse. The total colitis score could range from 0 (no pathology in any segment) to 16 (grade 4 lesions in all colon segments).

[4] = 1% DS in drinking water and synthetic diet, days 0 to 5
[5] = 1.5% DS in drinking water and synthetic diet, days 0 to 5
[6] = 2.0% DS in drinking water and synthetic diet, days 0 to 5
[7] = 3.0% DS in drinking water, laboratory chow

Terminal serum Ca++ ([1]; 50 ng/day in diet from day −7, 1% DS days 0 to 5, terminated day 27): 10.5 ± 1.2 mg/dL
Terminal Serum Ca ([2]; terminated 21 days later): 8.3 ± 1.3 mg/dL
Compound: C[C@]12C=CC(=O)C=C1CC[C@@H]1[C@@H]2[C@@H](O)C[C@@]2(C)[C@H]1CC[C@]2(O)C(=O)CO [Prednisolone, prednisolone]
Peak Hg in Stool ([1]; 50 ng/day in diet from day −7, 1% DS days 0 to 5): 12.3 ± 10.0 mg/g
Colon Histopathology, Distal colon ([1]; 50 ng/day, 1% DS, score 0 to 4): 1.1 ± 0.4
Colon histopathology, Medial colon ([1]; 50 ng/day, 1% DS, score 0 to 4): 0.3 ± 0.5
Colon histopathology, Proximal colon ([1]; 50 ng/day, 1% DS, score 0 to 4): 1.0 ± 0
Colon histopathology, Rectum ([1]; 50 ng/day, 1% DS, score 0 to 4): 2.9 ± 1.1
Colon histopathology, Sum ([1]; 50 ng/day, 1% DS, total score 0 to 16): 5.3 ± 1.4
Colon Histopathology, Distal colon [2]: 2.0 ± 0.3
Colon Histopathology, Middle colon [2]: 0.2 ± 0.3
Colon Histopathology, Rectum + anus [2]: 0.8 ± 1.1
Colon histopathology, Proximal colon [2]: 0.7 ± 0.4
Colon histopathology, Sum [2]: 3.7 ± 1.3
Peak fecal hemoglobin ([2]; 1 cycle, terminated 21 days later): 0.4 ± 0.6 mg/g
Terminal weight ([2]; terminated 21 days later): 26.5 ± 02.0 g
Terminal weight [3]: 29.4 ± 1.4 g

Compound: dextran sulfate [DS]
Weight change (%, day 0-11) (male C3H/HeJ mice; 1% DS in acidified drinking water and synthetic diet, days 0 to 5): 2.1 ± 0.9%
Mortality (%) (male C3H/HeJ mice; [4]): 0%
Peak Hg in Stool (male C3H/HeJ mice; [4]): 1.8 mg/g
Colon Histopathology (sum) (male C3H/HeJ mice; 1% DS in drinking water and synthetic diet): 6.3 ± 3.5
Mortality (%) (male C3H/HeJ mice; [5]): 66%
Peak Hg in Stool (male C3H/HeJ mice; [5]): 16.7 mg/g
Weight change (%, day 0-11) (male C3H/HeJ mice; [5]): −12.4 ± 0.7%
Colon Histopathology (sum) (male C3H/HeJ mice; 1.5% DS in drinking water and synthetic diet): 6.5
Mortality (%) (male C3H/HeJ mice; [6]): 100%
Peak Hg in Stool (male C3H/HeJ mice; [6]): 31.7 mg/g
Weight change (%, day 0-11) (male C3H/HeJ mice; 2.0% DS in drinking water and synthetic diet, weight change day 0 to 6, when mortality reached 100%): −17.5 ± 0.2^b %
Mortality (%) (male C3H/HeJ mice; [7]): 0%
Peak Hg in Stool (male C3H/HeJ mice; [7]): 11.4 mg/g
Weight change (%, day 0-11) (male C3H/HeJ mice; [7]): −5.4%
Colon Histopathology (sum) (male C3H/HeJ mice; [7]): 9.5 ± 0.9
Hemoglobin (Hg) in the stool (male C3H/HeJ mice; 3.5% DS w/v in acidified water for 5 days, laboratory chow): 11.4 mg Hg/g stool
Body weight (male C3H/HeJ mice; 3.5% DS w/v in acidified water for 5 days, laboratory chow, controls 26.1±0.7 g): 22.8 ± 0.3 g
Signs of colitis (diarrhea, blood in the stool, weight loss) (male C3H/HeJ mice; 3.5% DS w/v in acidified water for 5 days, synthetic diet (mice shunned the DS water)): no signs of colitis
